Test results from patent US7514443B2, “Substituted pyrazolo[1,5-a]pyrimidines as inhibitors of metabotropic glutamate receptors” (Hoffmann-La Roche Inc., priority 2003, dated 2009).

| Compound | melting point [°C] |
| --- | --- |
| COc1ccc(-c2cc(C(F)(F)F)n3ncc(-c4ccncc4)c3n2)cc1 [Example 4.58, 5-(4-Methoxy-phenyl)-3-pyridin-4-yl-7-trifluoromethyl-pyrazolo[1,5-a]pyrimidine] | 244 |
| N#Cc1ncn2c(C(F)(F)F)cc(-c3ccccc3)nc12 [Example 5.1, 2-Phenyl-4-trifluoromethyl-imidazo[1,5-a]pyrimidine-8-carbonitrile] | 202 |
| N#Cc1ncn2c(C(F)(F)F)cc(-c3ccc(Cl)cc3)nc12 [Example 5.2, 2-(4-Chloro-phenyl)-4-trifluoromethyl-imidazo[1,5-a]pyrimidine-8-carbonitrile] | 205 |
| N#Cc1ncn2c(C(F)(F)F)cc(-c3cccc(Cl)c3)nc12 [Example 5.3, 2-(3-Chloro-phenyl)-4-trifluoromethyl-imidazo[1,5-a]pyrimidine-8-carbonitrile] | 221 |
| Cc1ccc(-c2cc(C(F)(F)F)n3cnc(C#N)c3n2)cc1 [Example 5.4, 2-(4-Methyl-phenyl)-4-trifluoromethyl-imidazo[1,5-a]pyrimidine-8-carbonitrile] | 197 |
| COc1ccc(-c2cc(C(F)(F)F)n3cnc(C#N)c3n2)cc1 [Example 5.5, 2-(4-Methoxy-phenyl)-4-trifluoromethyl-imidazo[1,5-a]pyrimidine-8-carbonitrile] | 192 |
| N#Cc1ncn2c(C(F)(F)F)cc(-c3ccccc3Cl)nc12 [Example 5.6, 2-(2-Chloro-phenyl)-4-trifluoromethyl-imidazo[1,5-a]pyrimidine-8-carbonitrile] | 180 |
| N#Cc1ncn2c(C(F)(F)F)cc(-c3ccc(Cl)cc3Cl)nc12 [Example 5.7, 2-(2,4-Dichloro-phenyl)-4-trifluoromethyl-imidazo[1,5-a]pyrimidine-8-carbonitrile] | 139 |
| Cc1ccccc1-c1cc(C(F)(F)F)n2cnc(C#N)c2n1 [Example 5.8, 2-(2-Methyl-phenyl)-4-trifluoromethyl-imidazo[1,5-a]pyrimidine-8-carbonitrile] | 151 |
| Cc1cccc(-c2cc(C(F)(F)F)n3cnc(C#N)c3n2)c1 [Example 5.9, 2-(3-Methyl-phenyl)-4-trifluoromethyl-imidazo[1,5-a]pyrimidine-8-carbonitrile] | 202 |
| N#Cc1ncn2c(C(F)(F)F)cc(-c3ccc(C(F)(F)F)cc3)nc12 [Example 5.10, 2-(4-Trifluoromethyl-phenyl)-4-trifluoromethyl-imidazo[1,5-a]pyrimidine-8-carbonitrile] | 236 |
| N#Cc1ncn2c(C(F)(F)F)cc(-c3cccc(C(F)(F)F)c3)nc12 [Example 5.11, 2-(3-Trifluoromethyl-phenyl)-4-trifluoromethyl-imidazo[1,5-a]pyrimidine-8-carbonitrile] | 202 |
| Cc1ccc(-c2cc(C(F)(F)F)n3cnc(C#N)c3n2)cc1C(F)(F)F [Example 5.22, 2-(4-Methyl-3-trifluoromethyl-phenyl)-4-trifluoromethyl-imidazo[1,5-a]pyrimidine-8-carbonitrile] | 220 |
| Cc1cc(-c2cc(C(F)(F)F)n3cnc(C#N)c3n2)ccc1C(F)(F)F [Example 5.23, 2-(3-Methyl-4-trifluoromethyl-phenyl)-4-trifluoromethyl-imidazo[1,5-a]pyrimidine-8-carbonitrile] | 217 |
| N#Cc1ncn2c(C(F)(F)F)cc(-c3ccc(OCC(F)(F)F)c(C(F)(F)F)c3)nc12 [Example 5.24, 2-(4-Trifluoroethoxy-3-trifluoromethyl-phenyl)-4-trifluoromethyl-imidazo[1,5-a]pyrimidine-8-carbonitrile] | 189 |
| N#Cc1ncn2c(C(F)(F)F)cc(-c3ccccn3)nc12 [Example 5.25, 2-Pyridin-2-yl-4-trifluoromethyl-imidazo[1,5-a]pyrimidine-8-carbonitrile] | 205 |
| N#Cc1ncn2c(C(F)(F)F)cc(-c3cccnc3)nc12 [Example 5.26, 2-Pyridin-3-yl-4-trifluoromethyl-imidazo[1,5-a]pyrimidine-8-carbonitrile] | 222 |
| N#Cc1ncn2c(C(F)(F)F)cc(-c3ccncc3)nc12 [Example 5.27, 2-Pyridin-4-yl-4-trifluoromethyl-imidazo[1,5-a]pyrimidine-8-carbonitrile] | 254 |
| Cc1cc(-c2cc(C(F)(F)F)n3ncc(-c4ccnc(CO)c4)c3n2)ccc1C(F)(F)F [Example 6.2, 5-(3-Methyl-4-trifluoromethyl-phenyl)-3-(2-hydroxymethyl-pyridin-4-yl)-7-trifluoromethyl-pyrazolo[1,5-a]pyrimidine] | 231 |
| Cc1cc(-c2cc(C(F)(F)F)n3ncc(-c4ccnc(CO)c4)c3n2)ccc1Cl [Example 6.3, {4-[5-(4-Chloro-3-methyl-phenyl)-7-trifluoromethyl-pyrazolo[1,5-a]pyrimidin-3-yl]-pyridin-2-yl}-methanol] | 220 |

| Compound | melting point [°C] |
| --- | --- |
| OCc1cc(-c2cnn3c(C(F)(F)F)cc(-c4ccc(Cl)c(Cl)c4)nc23)ccn1 [Example 6.4, {4-[5-(3,4-Dichloro-phenyl)-7-trifluoromethyl-pyrazolo[1,5-a]pyrimidin-3-yl]-pyridin-2-yl}-methanol] | 233 |
| FC(F)(F)c1cc(-c2ccc(Cl)cc2)nc2c(-c3cccnc3)ncn12 [Example 8.2, 2-(4-Chloro-phenyl)-8-pyridin-3-yl-4-trifluoromethyl-imidazo[1,5-a]pyrimidine] | 206 |
| Fc1ccc(-c2cc(C(F)(F)F)n3cnc(-c4cccnc4)c3n2)cc1Cl [Example 8.3, 2-(3-Chloro-4-fluoro-phenyl)-8-pyridin-3-yl-4-trifluoromethyl-imidazo[1,5-a]pyrimidine] | 188 |
| FC(F)(F)c1cccc(-c2cc(C(F)(F)F)n3cnc(-c4cccnc4)c3n2)c1 [Example 8.5, 8-Pyridin-3-yl-4-trifluoromethyl-2-(3-trifluoromethyl-phenyl)-imidazo[1,5-a]pyrimidine] | 194 |
| FC(F)(F)c1ccc(-c2cc(C(F)(F)F)n3cnc(-c4cccnc4)c3n2)cc1 [Example 8.6, 8-Pyridin-3-yl-4-trifluoromethyl-2-(4-trifluoromethyl-phenyl)-imidazo[1,5-a]pyrimidine] | 231 |
| Cc1ccc(-c2cc(C(F)(F)F)n3cnc(-c4cccnc4)c3n2)cc1C(F)(F)F [Example 8.7, 2-(4-Methyl-3-trifluoromethyl-phenyl)-8-pyridin-3-yl-4-trifluoromethyl-imidazo[1,5-a]pyrimidine] | 236 |
| Cc1cc(-c2cc(C(F)(F)F)n3cnc(-c4cccnc4)c3n2)ccc1C(F)(F)F [Example 8.8, 2-(3-Methyl-4-trifluoromethyl-phenyl)-8-pyridin-3-yl-4-trifluoromethyl-imidazo[1,5-a]pyrimidine] | 173 |
| FC(F)(F)c1cc(-c2ccc(Cl)cc2)nc2c(-c3ccncc3)ncn12 [Example 8.9, 2-(4-Chloro-phenyl)-8-pyridin-4-yl-4-trifluoromethyl-imidazo[1,5-a]pyrimidine] | 290 |
| Cc1cc(-c2cc(C(F)(F)F)n3cnc(-c4ccncc4)c3n2)ccc1Cl [Example 8.10, 2-(4-Chloro-3-methyl-phenyl)-8-pyridin-4-yl-4-trifluoromethyl-imidazo[1,5-a]pyrimidine] | 254 |
| Fc1ccc(-c2cc(C(F)(F)F)n3cnc(-c4ccncc4)c3n2)cc1Cl [Example 8.11, 2-(3-Chloro-4-fluoro-phenyl)-8-pyridin-4-yl-4-trifluoromethyl-imidazo[1,5-a]pyrimidine] | 266 |
| FC(F)(F)c1cccc(-c2cc(C(F)(F)F)n3cnc(-c4ccncc4)c3n2)c1 [Example 8.13, 8-Pyridin-4-yl-4-trifluoromethyl-2-(3-trifluoromethyl-phenyl)-imidazo[1,5-a]pyrimidine] | 258 |
| FC(F)(F)c1ccc(-c2cc(C(F)(F)F)n3cnc(-c4ccncc4)c3n2)cc1 [Example 8.14, 8-Pyridin-4-yl-4-trifluoromethyl-2-(4-trifluoromethyl-phenyl)-imidazo[1,5-a]pyrimidine] | 240 |
| Fc1cc(-c2cc(C(F)(F)F)n3cnc(-c4ccncc4)c3n2)ccc1C(F)(F)F [Example 8.15, 2-(3-Fluoro-4-trifluoromethyl-phenyl)-8-pyridin-4-yl-4-trifluoromethyl-imidazo[1,5-a]pyrimidine] | 267 |
| Cc1ccc(-c2cc(C(F)(F)F)n3cnc(-c4ccncc4)c3n2)cc1C(F)(F)F [Example 8.16, 2-(4-Methyl-3-trifluoromethyl-phenyl)-8-pyridin-4-yl-4-trifluoromethyl-imidazo[1,5-a]pyrimidine] | 222 |
| CCOc1ccc(-c2cc(C(F)(F)F)n3cnc(-c4ccncc4)c3n2)cc1C(F)(F)F [Example 8.17, 2-(4-Ethoxy-3-trifluoromethyl-phenyl)-8-pyridin-4-yl-4-trifluoromethyl-imidazo[1,5-a]pyrimidine] | 244 |
| FC(F)(F)COc1ccc(-c2cc(C(F)(F)F)n3cnc(-c4ccncc4)c3n2)cc1C(F)(F)F [Example 8.18, 8-Pyridin-4-yl-2-[4-(2,2,2-trifluoro-ethoxy)-3-trifluoromethyl-phenyl]-4-trifluoromethyl-imidazo[1,5-a]pyrimidine] | 269 |
| Cc1cc(-c2ncn3c(C(F)(F)F)cc(-c4ccc(Cl)cc4)nc23)ccn1 [Example 8.20, 2-(4-Chloro-phenyl)-8-(2-methyl-pyridin-4-yl)-4-trifluoromethyl-imidazo[1,5-a]pyrimidine] | 232 |
| Cc1cc(-c2ncn3c(C(F)(F)F)cc(-c4ccc(Cl)c(C)c4)nc23)ccn1 [Example 8.21, 2-(4-Chloro-3-methyl-phenyl)-8-(2-methyl-pyridin-4-yl)-4-trifluoromethyl-imidazo[1,5-a]pyrimidine] | 246 |
| Cc1cc(-c2ncn3c(C(F)(F)F)cc(-c4ccc(F)c(Cl)c4)nc23)ccn1 [Example 8.22, 2-(3-Chloro-4-fluoro-phenyl)-8-(2-methyl-pyridin-4-yl)-4-trifluoromethyl-imidazo[1,5-a]pyrimidine] | 255 |
